# According to patent publication US10711245B2, “Direct conversion method of human fibroblasts into neural stem cells using small molecules” (KOREA UNIVERSITY RESEARCH AND BUSINESS FOUNDATION, priority 2015, dated 2020):
# Test system: human fibroblasts
# Assay: Marker gene expression by quantitative PCR in human fibroblasts cultured with each single small-molecule compound
# Assay type: cell-based
# Conditions: each compound alone in neurobasal medium (DMEM/F12, N2, B27, bFGF, EGF), markers nestin, sox1, sox2, pax6
# Protocol: To investigate the function of each of small-molecule compounds and find an optimal combination of small-molecule compounds, 1×10^5 human fibroblasts were prepared in 60 mm dishes, and on the next day, the cells were cultured in a neurobasal medium (containing DMEM/F12, N2, B27, bFGF, and EGF) supplemented with each of 13 different small-molecule compounds (PD0325901, SB431542, Thiazovivin, Ascorbic acid, PS48, CHIR99021, Deazaneplanocin A, Valproic acid, Forskolin, Tranylcypromine, A8301, 5-AZA, and Purmorphamine). Then, the morphological changes of the cells were observed while the medium was replaced at 2-3-day intervals (FIG. 1). The cells were subcultured at 5-day intervals, and in this stage, the cells were sampled in order to examine gene expression patterns therein. Using the cell sample, the expression patterns of a fibroblast marker (Thy1), neural stem cell markers (nestin, sox1, sox2, pax6), a MET or EMT marker (snail, N-cadherin, E-cadherin), endodermal and mesodermal markers (AFP, GATA4), and a marker (Zsacn4) associated with the maintenance of chromosomal stability, in the cell sample, were analyzed by quantitative PCR (FIG. 2).
row,SMILES,expressions of the neural stem cell marker genes
1,"Nc1nccc2c1ncn2[C@@H]1C=C(CO)[C@@H](O)[C@H]1O [Deazaneplanocin A, 5R-(4-amino-1H-imidazo[4,5-c]pyridin-1-yl)-3-(hydroxymethyl)-3-cyclopentene-1S,2R-diol]",distinctly increased
2,"O=C(NCc1ccccc1)c1csc(Nc2ccncn2)n1 [Thiazovivin, N-(phenylmethyl)-2-(4-pyrimidinylamino)-4-thiazolecarboxamide]",distinctly increased
3,"Cc1cccc(-c2nn(C(=S)Nc3ccccc3)cc2-c2ccnc3ccccc23)n1 [A8301, 3-(6-Methyl-2-pyridinyl)-N-phenyl-4-(4-quinolinyl)-1H-pyrazole-1-carbothioamide]",distinctly increased
4,"Nc1ncn([C@@H]2O[C@H](CO)[C@@H](O)[C@H]2O)c(=O)n1 [5-AZA, 4-amino-1-β-D-ribofuranosyl-1,3,5-triazin-2(1H)-one]",distinctly increased
5,"CCCC(CCC)C(=O)O [Valproic acid, 2-propyl-pentanoic acid]",distinctly increased
6,"NC(=O)c1ccc(-c2nc(-c3ccc4c(c3)OCO4)c(-c3ccccn3)[nH]2)cc1 [SB431542, 4-[4-(3,4-Methylenedioxyphenyl)-5-(2-pyridyl)-1H-imidazol-2-yl]benzamide]",distinctly increased
7,"Cc1cnc(-c2cnc(NCCNc3ccc(C#N)cn3)nc2-c2ccc(Cl)cc2Cl)[nH]1 [CHIR99021, 6-[[2-[[4-(2,4-dichlorophenyl)-5-(5-methyl-1H-imidazol-2-yl)-2-pyrimidinyl]amino]ethyl]amino]-3-pyridinecarbonitrile]",distinctly increased
